{
  "source": "patent US6355799B1",
  "about": "“Substituted benzene compounds, process for their preparation, and herbicidal and defoliant compositions containing them” (ISK Americas Incorporated, priority 1997, dated 2002)",
  "type_in_all_cases": "in vivo",
  "key": {"[1]": {"test_system": "velvetleaf (Abutilon theophrasti, ABUTH)", "assay": "Post-emerge test, greenhouse herbicide activity screening", "conditions": "rating scale 0-100 (0 no damage, 100 complete death), 14 days after application", "outline": "(§1)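 Applied at 15–1000 g ai/ha from acetone in 187 l/ha spray volume. Post-emergence applications included 0.25% v/v non-ionic surfactant and reached plants sown 8–21 days before. Pre-emergence applications were incorporated by surface watering. Efficacy or crop damage was rated on a 0–100 scale after 14 days.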"}, "[2]": {"test_system": "ivyleaf morningglory (Ipomoea hederacea, IPOHE)", "assay": "Post-emerge test, greenhouse herbicide activity screening", "conditions": "rating scale 0-100 (0 no damage, 100 complete death), 14 days after application", "outline": "as §1"}, "[3]": {"test_system": "large crabgrass (Digitaria sanguinalis, DIGSA)", "assay": "Post-emerge test, greenhouse herbicide activity screening", "conditions": "rating scale 0-100 (0 no damage, 100 complete death), 14 days after application", "outline": "as §1"}, "[4]": {"test_system": "green foxtail (Setaria viridis, SETVI)", "assay": "Post-emerge test, greenhouse herbicide activity screening", "conditions": "rating scale 0-100 (0 no damage, 100 complete death), 14 days after application", "outline": "as §1"}, "[5]": {"test_system": "barnyardgrass (Echinochloa crus-galli, ECHCG)", "assay": "Post-emerge test, greenhouse herbicide activity screening", "conditions": "rating scale 0-100 (0 no damage, 100 complete death), 14 days after application", "outline": "as §1"}, "[6]": {"test_system": "johnsongrass (Sorghum halepense, SORHA)", "assay": "Post-emerge test, greenhouse herbicide activity screening", "conditions": "rating scale 0-100 (0 no damage, 100 complete death), 14 days after application", "outline": "as §1"}, "[7]": {"test_system": "redroot pigweed (Amaranthus retroflexus, AMARE)", "assay": "Post-emerge test, greenhouse herbicide activity screening", "conditions": "rating scale 0-100 (0 no damage, 100 complete death), 14 days after application", "outline": "as §1"}, "[8]": {"test_system": "sicklepod (Cassia obtusifolia, CASOB)", "assay": "Post-emerge test, greenhouse herbicide activity screening", "conditions": "rating scale 0-100 (0 no damage, 100 complete death), 14 days after application", "outline": "as §1"}, "[9]": {"test_system": "velvetleaf (Abutilon theophrasti, ABUTH)", "assay": "Pre-emerge test, greenhouse herbicide activity screening", "conditions": "pre-emerge, 14 days after application, rating scale 0-100", "outline": "(§2)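 Fourteen days after spraying, crop and weed injury was graded visually from 0, no effect, to 100, every plant dead. Test substances were dissolved in acetone and applied at 15–1000 g ai/ha with a flat-fan nozzle. Application was either pre-emergence, one day after sowing, or post-emergence at the 2–3 leaf stage.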"}, "[10]": {"test_system": "ivyleaf morningglory (Ipomoea hederacea, IPOHE)", "assay": "Pre-emerge test, greenhouse herbicide activity screening", "conditions": "pre-emerge, 14 days after application, rating scale 0-100", "outline": "as §2"}, "[11]": {"test_system": "large crabgrass (Digitaria sanguinalis, DIGSA)", "assay": "Pre-emerge test, greenhouse herbicide activity screening", "conditions": "pre-emerge, 14 days after application, rating scale 0-100", "outline": "as §2"}, "[12]": {"test_system": "lambsquarters (Chenopodium album, CHEAL)", "assay": "Pre-emerge test, greenhouse herbicide activity screening", "conditions": "pre-emerge, 14 days after application, rating scale 0-100", "outline": "as §2"}, "[13]": {"test_system": "green foxtail (Setaria viridis, SETVI)", "assay": "Pre-emerge test, greenhouse herbicide activity screening", "conditions": "pre-emerge, 14 days after application, rating scale 0-100", "outline": "as §2"}, "[14]": {"test_system": "barnyardgrass (Echinochloa crus-galli, ECHCG)", "assay": "Pre-emerge test, greenhouse herbicide activity screening", "conditions": "pre-emerge, 14 days after application, rating scale 0-100", "outline": "as §2"}, "[15]": {"test_system": "johnsongrass (Sorghum halepense, SORHA)", "assay": "Pre-emerge test, greenhouse herbicide activity screening", "conditions": "pre-emerge, 14 days after application, rating scale 0-100", "outline": "as §2"}, "[16]": {"test_system": "sicklepod (Cassia obtusifolia, CASOB)", "assay": "Pre-emerge test, greenhouse herbicide activity screening", "conditions": "pre-emerge, 14 days after application, rating scale 0-100", "outline": "as §2"}, "[17]": {"test_system": "upland rice (Oryza sp., var. Tebonnet, RICE)", "assay": "Post-emerge test, crop safety", "conditions": "rating scale 0-100 (0 no damage, 100 complete death), 14 days after application", "outline": "as §2"}, "[18]": {"test_system": "field corn (Zea mays L., var. Dekalb 535, CORN)", "assay": "Post-emerge test, crop safety", "conditions": "rating scale 0-100 (0 no damage, 100 complete death), 14 days after application", "outline": "as §2"}, "[19]": {"test_system": "redroot pigweed (Amaranthus retroflexus, AMARE)", "assay": "Pre-emerge test, greenhouse herbicide activity screening", "conditions": "pre-emerge, 14 days after application, rating scale 0-100", "outline": "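Plants grown in 10 cm pots of sandy loam mix received acetone-dissolved compounds through a moving flat-fan nozzle. Doses ranged from 15 to 1000 g ai/ha. Pre-emerge pots were seeded one day earlier, post-emerge pots 8–21 days earlier. Fourteen days on, each pot was graded 0–100 for damage.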"}, "[20]": {"test_system": "upland rice (Oryza sp., var. Tebonnet, RICE)", "assay": "Pre-emerge test, crop safety", "conditions": "pre-emerge, 14 days after application, rating scale 0-100", "outline": "(§3)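 Sandy loam pots; pre-emerge: sown 1 d pre-spray, surface-watered after, then bottom-watered. Post-emerge: sown 8–21 d before, 2–3 leaf stage, + 0.25% v/v NIS, bottom-watered. Acetone, 187 l/ha track spray, 15–1000 g ai/ha. 0–100 injury score, day 14.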"}, "[21]": {"test_system": "field corn (Zea mays L., var. Dekalb 535, CORN)", "assay": "Pre-emerge test, crop safety", "conditions": "pre-emerge, 14 days after application, rating scale 0-100", "outline": "as §3"}},
  "data": [
    {"smiles": "CCOC(=O)C(Cl)Cc1cc(Cl)cc(F)c1-n1nc(C)n(C(F)F)c1=O", "note": "(stereo not drawn) [14-52]", "values": [
      {"measurement": "Post-emerge Herbicidal Activity, phytotoxicity rating ABUTH", "setting": "[1]; Rate 63 g ai/ha", "result": 90},
      {"measurement": "Post-emerge Herbicidal Activity, phytotoxicity rating ABUTH", "setting": "[1]; Rate 250 g ai/ha", "result": 100},
      {"measurement": "Post-emerge Herbicidal Activity, phytotoxicity rating IPOHE", "setting": "[2]; Rate 63 g ai/ha", "result": 100},
      {"measurement": "Post-emerge Herbicidal Activity, phytotoxicity rating IPOHE", "setting": "[2]; Rate 250 g ai/ha", "result": 100},
      {"measurement": "Post-emerge Herbicidal Activity, phytotoxicity rating DIGSA", "setting": "[3]; Rate 63 g ai/ha", "result": 0},
      {"measurement": "Post-emerge Herbicidal Activity, phytotoxicity rating DIGSA", "setting": "[3]; Rate 250 g ai/ha", "result": 0},
      {"measurement": "Post-emerge Herbicidal Activity, phytotoxicity rating SETVI", "setting": "[4]; Rate 63 g ai/ha", "result": 0},
      {"measurement": "Post-emerge Herbicidal Activity, phytotoxicity rating SETVI", "setting": "[4]; Rate 250 g ai/ha", "result": 0},
      {"measurement": "Post-emerge Herbicidal Activity, phytotoxicity rating ECHCG", "setting": "[5]; Rate 63 g ai/ha", "result": 0},
      {"measurement": "Post-emerge Herbicidal Activity, phytotoxicity rating ECHCG", "setting": "[5]; Rate 250 g ai/ha", "result": 10},
      {"measurement": "Post-emerge Herbicidal Activity, phytotoxicity rating SORHA", "setting": "[6]; Rate 63 g ai/ha", "result": 0},
      {"measurement": "Post-emerge Herbicidal Activity, phytotoxicity rating SORHA", "setting": "[6]; Rate 250 g ai/ha", "result": 0},
      {"measurement": "Post-emerge Herbicidal Activity, phytotoxicity rating AMARE", "setting": "[7]; Rate 63 g ai/ha", "result": 20},
      {"measurement": "Post-emerge Herbicidal Activity, phytotoxicity rating AMARE", "setting": "[7]; Rate 250 g ai/ha", "result": 50},
      {"measurement": "Post-emerge Herbicidal Activity, phytotoxicity rating CASOB", "setting": "[8]; Rate 63 g ai/ha", "result": 0},
      {"measurement": "Post-emerge Herbicidal Activity, phytotoxicity rating CASOB", "setting": "[8]; Rate 250 g ai/ha", "result": 70},
      {"measurement": "phytotoxicity rating ABUTH", "setting": "[9]; 63 g ai/ha", "result": 70},
      {"measurement": "phytotoxicity rating ABUTH", "setting": "[9]; 250 g ai/ha", "result": 100},
      {"measurement": "phytotoxicity rating IPOHE", "setting": "[10]; 63 g ai/ha", "result": 0},
      {"measurement": "phytotoxicity rating IPOHE", "setting": "[10]; 250 g ai/ha", "result": 30},
      {"measurement": "phytotoxicity rating DIGSA", "setting": "[11]; 63 g ai/ha", "result": 0},
      {"measurement": "phytotoxicity rating DIGSA", "setting": "[11]; 250 g ai/ha", "result": 0},
      {"measurement": "phytotoxicity rating CHEAL", "setting": "[12]; 63 g ai/ha", "result": 80},
      {"measurement": "phytotoxicity rating CHEAL", "setting": "[12]; 250 g ai/ha", "result": 100},
      {"measurement": "phytotoxicity rating SETVI", "setting": "[13]; 63 g ai/ha", "result": 0},
      {"measurement": "phytotoxicity rating SETVI", "setting": "[13]; 250 g ai/ha", "result": 0},
      {"measurement": "phytotoxicity rating ECHCG", "setting": "[14]; 63 g ai/ha", "result": 0},
      {"measurement": "phytotoxicity rating ECHCG", "setting": "[14]; 250 g ai/ha", "result": 0},
      {"measurement": "phytotoxicity rating SORHA", "setting": "[15]; 63 g ai/ha", "result": 0},
      {"measurement": "phytotoxicity rating SORHA", "setting": "[15]; 250 g ai/ha", "result": 0},
      {"measurement": "phytotoxicity rating CASOB", "setting": "[16]; 63 g ai/ha", "result": 0},
      {"measurement": "phytotoxicity rating CASOB", "setting": "[16]; 250 g ai/ha", "result": 0},
      {"measurement": "Post-emerge phytotoxicity rating RICE (crop damage)", "setting": "[17]; Rate 63 g ai/ha", "result": 0},
      {"measurement": "Post-emerge phytotoxicity rating RICE (crop damage)", "setting": "[17]; Rate 250 g ai/ha", "result": 0},
      {"measurement": "Post-emerge phytotoxicity rating CORN (crop damage)", "setting": "[18]; Rate 63 g ai/ha", "result": 0},
      {"measurement": "Post-emerge phytotoxicity rating CORN (crop damage)", "setting": "[18]; Rate 250 g ai/ha", "result": 10},
      {"measurement": "phytotoxicity rating AMARE", "setting": "[19]; 63 g ai/ha", "result": 40},
      {"measurement": "phytotoxicity rating AMARE", "setting": "[19]; 250 g ai/ha", "result": 90},
      {"measurement": "phytotoxicity rating RICE", "setting": "[20]; 63 g ai/ha", "result": 0},
      {"measurement": "phytotoxicity rating RICE", "setting": "[20]; 250 g ai/ha", "result": 0},
      {"measurement": "phytotoxicity rating CORN", "setting": "[21]; 63 g ai/ha", "result": 0},
      {"measurement": "phytotoxicity rating CORN", "setting": "[21]; 250 g ai/ha", "result": 0}
    ]}
  ]
}
